# Where two headings read alike, the source gives them in different places.
# B1: CA1.CD2-P40: CA1.CD2 PEGylated with PEG40 (conjugate)
# chain: RDSGTVWGALGHGINLNIPNFQMTDDIDEVRWERGSTLVAEFKRKMKPFLKSGAFEILANGDLKIKNLTRDDSGTYNVTVYSTNGTRILNKALDLRILE
# B2: CA1.CD2-521-Bom: Bom/GRP sequence grafted into CA1.CD2 (protein)
# chain: RDSGTVWGALGHGIELNIPNFQMTDDIDEVRWERGSTLVAEFKRKMKPFLKSGGSGGGNQWAVGHLMGGSGGGAFEIDANGDLDIKNLTRDDSGTYNVTVYSTNGTRILNKALDLRILE
# Key:
# [1] = literature; cited from earlier work
# [2] = literature; cited from earlier work; remark: listed apart in the source
# [3] = cited from earlier work; for r1: based on references
# [4] = literature; cited from earlier work; remark: listed apart in the source
# [5] = standard curve, well-characterized chelators; cited from earlier work
# CD-1 mice = test: Mouse MR imaging; assay type: in vivo; details: 3T or 9.4T
# Procedure: (§1) Mouse MR Imaging. Care of experimental animals was in accordance with institutional guidelines. CD-1 mice (25-30 g, four mice were imaged) were anesthetized with an isoflurane gas mixture. The anesthetized animal was positioned and stabilized with soft-supporting material (e.g., foam) in the scanner in the coil cradle and was kept warm during the MRI scan. The mice were scanned prior to the administration of any contrast agent (pre-contrast). Approximately 50 μl of Gd-CA1.CD2 (~1.2 mM) or Gd-DTPA (~300 mM) were injected into the animal via the tail vein. MR images were collected at different times (indicated). For T1 weighted imaging at 3T, spin echo sequence with TE/TR=15 ms/500 ms was employed. Rectangular Field of View (FOV) at 100/40 mm, an acquisition matrix of 196^2 and 1.1 mm slice thickness without gap were used. Images were collected from both transverse and coronal sections. The in-plane resolution of images was less than 0.5 mm after they were reconstructed to the matrix of 196^2. For T2 weighted imaging at 9.4T, MR images were recorded using a multi-echo Carr-Purcell-Meiboom-Gill (CPMG) sequence. The data were collected and processed by Dicomworks software. The MR signal intensity in several organs was ascertained by the average intensity in ROIs or points within the organs. Signal intensity for each organ was normalized to that of the leg muscle.
# as §1, with “Care” for “Mouse MR Imaging. Care”, “(e.g.” for “(e.g.,”
# [6] = In vitro r1 and r2 proton relaxivity; assay type: physicochemical; details: 3.0 T; 50 μM designed agents, 100 μM Gd-DTPA
# [7] = In vitro r1 and r2 proton relaxivity; assay type: physicochemical
# Procedure: Determination of r1 and r2 Relaxivity Values, Relaxation times, T1 and T2, were determined at 1.5, 3, 9.4 Tesla using a Siemens whole-body MR system (1.5, 3T) or a Bruker MRI scanner (9.4T). T1 was determined using inversion recovery and T2 using a multi-echo Carr-Purcell-Meiboom-Gill (CPMG) sequence. The contrast agent samples (200 μl) with different concentrations were placed in eppendorf tubes. The tubes were placed on a tube rack, which was placed in MRI scanners for the measurement of relaxation times r1 and r2 were calculated based on r1(mM^−1 S^−1)=(1/T1s−1/T1c)/C and r2(mM^−1 S^−1)=(1/T2s−1/T2c)/C, where T1s and T2s are relaxation times with contrast agent and T1c and T2c are relaxation times without contrast agent. C is the concentration of contrast agent in mM (the measured Gd^3+ concentrations by ICP-MS). […]
# [8] = used for the Gd^3+ buffer system; read-out: Gd^3+-binding affinity; cited from earlier work
# [9] = Water coordination number by terbium life time luminescence; assay type: physicochemical
# Procedure: Measurement of Water Coordination Number by Terbium Life Time Luminescence. The number of water ligands coordinated to Gd^3+-CA1.CD2 complex was determined by measuring Tb^3+ luminescence decay in H2O or D2O. Tb^3+ excited state lifetime was measured using a fluorescence spectrophotometer (Photon Technology International, Inc.) with a 10 mm path length quartz cell at 22° ° C. Following excitation at 265 nm with a XenoFlash (Photon Technology International, Inc.), Tb^3+ emission was monitored at 545 nm in a time series experiment in both H2O and D2O systems. Luminescence decay lifetime was obtained by fitting the acquired data with a mono-exponential decay function. H2O in CA1.CD2 solution was replaced with D2O by lypholization and re-dissolved in D2O at least three times. A standard curve correlating the Δkobs with water number under our experimental conditions was established by using well-characterized chelators, such as EDTA (q=3), DTPA (q=1), NTA (q=5), and Aquo Tb^3+ (q=9) solution with R^2=0.997.^26,27 Water number coordinated to Tb^3+-CA1.CD2 complex was then obtained by fitting the acquired Δkobs value to the standard curve.
# The numbers of water ligands coordinated to Gd^3+-CA1.CD2 and variants complex were determined by measuring Tb^3+ luminescence decay in H2O or D2O (Yang et al., 2008). Tb^3+ excited state lifetime was measured using a fluorescence spectrophotometer (Photon Technology International, Inc.) with a 10 mm path length quartz cell at 22° C. Following excitation at 265 nm with a XenoFlash (Photon Technology International, Inc.), Tb^3+ emission was monitored at 545 nm in a time series experiment in both H2O and D2O systems. Luminescence decay lifetime was obtained by fitting the acquired data with a mono-exponential decay function. H2O in CA1.CD2 solution was replaced with D2O by lypholization and re-dissolved in D2O at least three times. A standard curve correlating the Δkobs with water number under our experimental conditions was established by using well-characterized chelators, such as EDTA (q=3). DTPA (q=1), NTA (q=5), and Aquo Tb^3+ (q=9) solation with R^2=0.997.^26, 27 Water number coordinated to Tb^+-CA1.CD2 complex was then obtained by fitting the acquired Δkobs value to the standard curve.
# [10] = Serum stability in human serum at 37° C., SDS-PAGE; assay type: in vitro ADME; details: 24 hours at 37° C., SDS Page
# Procedure: Serum stability. […] The degradation of the protein (disappearance of 12 kDa protein band) was analyzed by SDS-PAGE and visualized by coomassie blue staining. In parallel, the degradation of the protein was also analyzed by immunoblot using antibodies OX54 or PabCD2. The identities of the 12 kDa bands as CA1.CD2 were always verified by immunobloting using antibody PabCD2.
# […] The degradation of the protein (disappearance of 12 kDa protein band) was analyzed by SDS-PAGE and visualized by coomassie blue staining for protein and idiol staining for PEG moiety. In parallel, the degradation of the protein was also analyzed by immunoblot using antibodies OX54 or PabCD2. The identities of CA1.CD2 and pegylated variants were verified by immunoblotting using antibody PabCD2.and idiol staining.
# PC-3 = test: Uptake and internalization by confocal fluorescent microscope; assay type: cell-based
# Procedure: (§2) DU-145, PC-3 and H441 cells (8×10^4) were seeded in 4-well chambers (BD) at 37° C. overnight. In the second day, fresh medium was changed. Contrast agents were incubated with cells at different time point at 37° C. Subsequently, the cells were washed with PBS for three times and fixed with 3% formaldehyde for 15 minutes. After cells were rinsed in PBS for three times, 0.2% Triton X-100 was added to permeablize cells for 10 minutes. The cells were washed and four drops of Image-IT Fx signal enhancer (Invitrogen, CA) was applied in each sample to block unspecific binding. After three time washes, CD2 antibody was used as primary antibody. Goat anti-mouse IgG conjugated with Alexa Fluor 488 was used as detection antibody (Invitrogen, CA). The fluorescence image was acquired using 488 nm and UV lasers.
# DU-145 = test: as above; assay type: cell-based
# Procedure: as §2
molecule,measurement,setting,value
O=C(O)CN(CCN(CC(=O)O)CC(=O)O)CCN(CC(=O)O)CC(=O)O [DTPA],Log (KGd/KMg),[1],4.25
same,Log (KGd/KCa),[2],11.70
same,Metal binding constant (Log Ka) Ca^2+,[2],10.75
same,relaxivity,"[3]; clinically used DTPA, field not stated",5 mM⁻¹ s⁻¹
same,Log (KGd/KZn),[4],4.17
same,water number q of standard chelators,[5],1
O=C(O)CN(CCN(CC(=O)O)CC(=O)O)CC(=O)O [EDTA],water number q of standard chelators,[5],3
"O=C([O-])CN(CCN(CC(=O)[O-])CC(=O)O)CCN(CC(=O)[O-])CC(=O)O.[Gd+3] [Gd-DTPA, reference compound]",contrast enhancement at the same concentration as Gd-CA1.CD2,CD-1 mice,failed to exhibit contrast enhancements
same,contrast enhancement in T1 weighted imaging of samples,[6],did not lead to significant enhancement
same,r1,[7]; B0 1.5 T,5.4 mM⁻¹ s⁻¹
same,r1,[7]; B0 3 T,4.2 mM⁻¹ s⁻¹
"O=C(O)CN(CC(=O)O)CC(=O)O [NTA, nitrilotriacetic acid]",Kd,[8],2.6 pM
same,water number q of standard chelators,[5],5
Albumin,r1,[3]; B0 0.25 T,11.5 mM⁻¹ s⁻¹
Gadomer-17,r1,[3]; B0 1.5 T,13 mM⁻¹ s⁻¹
troponin C [reference compound],hydration number (water number in the coordination shell),[9],1.8
B1,stability in human serum,[10],remains intact
B2,uptake in GRPR positive PC-3 cells,PC-3,uptake and internalization
same,uptake in GRPR positive DU-145 cells,DU-145,uptake and internalization

# Source: US12708677B2, “Contrast agents, methods for preparing contrast agents, and methods of imaging” (Georgia State University Research Foundation, Inc., priority 2008, dated 2026)
